Test results published in ChEMBL document CHEMBL1201862, “PubChem BioAssay data set” (2004).
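Interpolation was linear, between the two tested concentrations surrounding the appropriate level; five concentrations were tested over 48 hours in 96-well plates. GI50 = concentration required for 50% inhibition of growth.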 Active and inactive are the calls of the source. No stated cut-off is given here; in the data, active = GI50 up to about 1.1 µM and inactive = higher.

What was measured:
Assay in all cases: DTP human tumour cell line panel, 48 h
[1] = system: COLO 205
[2] = system: Malme-3M
[3] = system: SNB-75
[4] = system: UO-31
[5] = system: NCI-H460
[6] = system: HL-60
[7] = system: ACHN
[8] = system: M14
[9] = system: OVCAR-8
[10] = system: HCT-15
[11] = system: SNB-19
[12] = system: HCC 2998
[13] = system: SK-MEL-5
[14] = system: SK-MEL-2
[15] = system: T47D
[16] = system: OVCAR-4
[17] = system: HT-29
[18] = system: EKVX
[19] = system: LOX IMVI
[20] = system: SK-OV-3

| SMILES | GI50 [1] | GI50 [2] | GI50 [3] | GI50 [4] | GI50 [5] | GI50 [6] | GI50 [7] | GI50 [8] | GI50 [9] | GI50 [10] | GI50 [11] | GI50 [12] | GI50 [13] | GI50 [14] | GI50 [15] | GI50 [16] | GI50 [17] | GI50 [18] | GI50 [19] | GI50 [20] |
| --- | --- | --- | --- | --- | --- | --- | --- | --- | --- | --- | --- | --- | --- | --- | --- | --- | --- | --- | --- | --- |
| N#CC1C=Cc2ccccc2N1C(=O)Oc1ccccc1 (stereo not drawn) | 58.7 µM (inactive) | 48.4 µM (inactive) | 93.5 µM (inactive) | 41.7 µM (inactive) | 41.4 µM (inactive) | 19.3 µM (inactive) | 50.2 µM (inactive) | 46.7 µM (inactive) | 48.8 µM (inactive) | 42.1 µM | 74.8 µM (inactive) | 40.1 µM (inactive) | 46.5 µM (inactive) | 23.1 µM (inactive) | 28.2 µM (inactive) | 40.6 µM (inactive) | 44.3 µM (inactive) | 42.4 µM (inactive) | 39.9 µM (inactive) |  |
| COc1cc2cc(C(=O)N3CC(CCl)c4c3cc(NC(=O)C(C)(C)c3ccccc3[N+](=O)[O-])c3ccccc43)[nH]c2c(OC)c1OC (stereo not drawn) | 5.43 µM (inactive) | 7.31 µM (inactive) | 3.76 µM (inactive) | 0.968 µM (active) | 0.158 µM (active) | 1.36 µM (inactive) | 0.385 µM (active) | 1.75 µM (inactive) | 0.951 µM (active) | 1.98 µM | 4.36 µM (inactive) | 6.15 µM (inactive) | 1.77 µM (inactive) | 6.93 µM (inactive) | 4.73 µM (inactive) | 3.08 µM (inactive) | 1.6 µM (inactive) | 11.7 µM (inactive) | 0.993 µM (active) | 2.75 µM (inactive) |
| C=CCOc1ccc(C2c3c(n[nH]c3O)CC(O)(OCC)C2C(=O)OCC)cc1OC (stereo not drawn) | > 100 µM (inactive) | > 100 µM (inactive) | > 100 µM (inactive) | > 100 µM (inactive) | > 100 µM (inactive) | > 100 µM (inactive) | > 100 µM (inactive) | > 100 µM (inactive) | > 100 µM (inactive) | > 100 µM | > 100 µM (inactive) | > 100 µM (inactive) | > 100 µM (inactive) | > 100 µM (inactive) | > 100 µM (inactive) | > 100 µM (inactive) | > 100 µM (inactive) | > 100 µM (inactive) | > 100 µM (inactive) |  |
| COc1ccc(/C=N/Nc2nc3ccccc3c(=O)n2-c2ccccc2)cc1 | > 100 µM (inactive) | > 100 µM (inactive) | 86.5 µM (inactive) | 2.28 µM (inactive) | 28.2 µM (inactive) | > 100 µM (inactive) | > 100 µM (inactive) | > 100 µM (inactive) | > 100 µM (inactive) | > 100 µM | > 100 µM (inactive) | > 100 µM (inactive) | > 100 µM (inactive) | > 100 µM (inactive) | > 100 µM (inactive) | > 100 µM (inactive) | > 100 µM (inactive) | > 100 µM (inactive) | 95.1 µM (inactive) | > 100 µM (inactive) |
| CCOC(=O)/C=C\C(C#N)(C#N)/N=C/c1ccsc1 | 1.9 µM (inactive) | 2.29 µM (inactive) | 13 µM (inactive) | 2.7 µM (inactive) | 20.5 µM (inactive) | 2 µM (inactive) | 2.91 µM (inactive) | 3.08 µM (inactive) | 3.86 µM (inactive) | 2.96 µM | 23.1 µM (inactive) | 16 µM (inactive) | 20 µM (inactive) | 17.7 µM (inactive) | 2 µM (inactive) | 6.43 µM (inactive) | 11.1 µM (inactive) | 16.5 µM (inactive) | 4.06 µM (inactive) | 20.8 µM (inactive) |
| Cc1cnc2nc(-c3ccc(F)cc3)cc(O)c2c1 | 7.64 µM (inactive) | 33.9 µM (inactive) | 20.1 µM (inactive) | 48.2 µM (inactive) | 19.1 µM (inactive) | 3.26 µM (inactive) | 57.5 µM (inactive) | 34.6 µM (inactive) | 66.4 µM (inactive) | 7.66 µM | 35.4 µM (inactive) | 43.5 µM (inactive) | 26.6 µM (inactive) | 25.4 µM (inactive) | 39.2 µM (inactive) | 48.6 µM (inactive) | 26.4 µM (inactive) | 30.9 µM (inactive) | 40.4 µM (inactive) | 21.6 µM (inactive) |
| CSc1ccc2c(c1)c(CCN)c(C)n2Cc1ccccc1Cl | 1.67 µM (inactive) | 1.69 µM (inactive) | 1.61 µM (inactive) | 1.52 µM (inactive) | 1.55 µM (inactive) | 1.56 µM (inactive) | 1.69 µM (inactive) | 1.72 µM (inactive) | 1.79 µM (inactive) | 2.02 µM | 1.77 µM (inactive) | 0.74 µM (active) | 1.72 µM (inactive) | 1.8 µM (inactive) | 1.57 µM (inactive) | 1.73 µM (inactive) | 1.6 µM (inactive) | 1.62 µM (inactive) | 1.83 µM (inactive) | 2 µM (inactive) |
